According to patent publication US20260022142A1, “MACROCYCLIC IMMUNOMODULATORS” (Bristol-Myers Squibb Company, priority 2022, published 2026):
Bridge positions count the residues as written; N and C are the ends. Square brackets hold non-standard residues; d marks the D form. Peptide text beside a SMILES is read from it. * marks the point of attachment. ξ: configuration not given here. Bip = N[C@@H](Cc1ccc(-c2ccccc2)cc1)C(=O)O; Pip(4-aza) = O=C(O)[C@@H]1CNCCN1; 4Pal = N[C@@H](Cc1ccncc1)C(=O)O; Cha = N[C@@H](CC1CCCCC1)C(=O)O; Thr(3ξ) = CC(O)[C@H](N)C(=O)O; Carboxymethyl = O=C(O)C*; Orn = NCCC[C@H](N)C(=O)O; Pra = C#CC[C@H](N)C(=O)O; Aun = NCCCCCCCCCCC(=O)O; Dab = NCC[C@H](N)C(=O)O; Dap = NC[C@H](N)C(=O)O; AEEA = NCCOCCOCC(=O)O

Target: T1, PD-1/PD-L1 interaction (PE-labeled human PD-L1-Ig binding to Jurkat cell line over-expressing human PD-1) (Homo sapiens, UniProt Q15116)
T1 construct: expressed in transfected cells; host or cells: Jurkat
T1 sequence (Q15116 25-288): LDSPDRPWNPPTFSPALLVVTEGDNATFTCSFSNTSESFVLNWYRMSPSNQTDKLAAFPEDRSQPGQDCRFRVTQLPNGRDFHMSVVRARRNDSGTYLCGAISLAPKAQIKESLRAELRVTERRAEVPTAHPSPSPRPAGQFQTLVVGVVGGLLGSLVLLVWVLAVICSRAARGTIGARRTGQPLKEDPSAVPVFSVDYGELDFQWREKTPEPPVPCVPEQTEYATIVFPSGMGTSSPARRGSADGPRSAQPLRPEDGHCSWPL
Assay: Jurkat-PD-1 Cell Binding High-Content Screening Assay (CBA)
Format: cell-based
Conditions: Jurkat cell line over-expressing human PD-1; PE-labeled PD-L1-Ig 20 nM final; read-out: Jurkat hPD1-PDL1 IC50
Outline: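 First, compound is added to PD-1-expressing Jurkat cells in serum-containing DMEM and left 2 h at 37° C. Next, PE-conjugated PD-L1-Ig is introduced at 20 nM final concentration for 1 hour. Finally, cells are fixed in 4% paraformaldehyde with Hoechst 33342, washed and imaged.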

Row | Compound | IC50
1 | C#CC[C@H](NC(=O)COCCOCCNC(=O)[C@H](CCN)NC(=O)[C@@H]1CSCC(=O)N[C@@H](Cc2ccncc2)C(=O)N[C@@H](Cc2ccc(OCC(=O)O)cc2)C(=O)N[C@@H](CC(=O)O)C(=O)N[C@@H](Cc2c[nH]c3ccccc23)C(=O)N[C@@H](C(C)C)C(=O)N[C@@H](Cc2ccc(-c3ccccc3)cc2)C(=O)N[C@@H]([C@@H](C)CC)C(=O)N[C@@H](CCCN)C(=O)N[C@H](CC(C)C)C(=O)N[C@@H](CCN)C(=O)N[C@@H](CC(C)C)C(=O)N[C@@H](C(C)C)C(=O)N[C@@H]([C@@H](C)O)C(=O)N1)C(=O)NCCCCCCCCCCC(=O)O [Compound 1206] ({CH2CO}-[4Pal]Y(Carboxymethyl)DWV[Bip]I[Orn][dL][Dab]LVTC[Dab][AEEA][Pra][Aun]-OH; thioether N-14) | 19.8 nM
2 | C#CC[C@H](NC(=O)COCCOCCNC(=O)[C@H](CCCN)NC(=O)[C@@H]1CSCC(=O)N[C@@H](Cc2ccncc2)C(=O)N[C@@H](Cc2ccc(OCC(=O)O)cc2)C(=O)N[C@@H](CC(=O)O)C(=O)N[C@@H](Cc2c[nH]c3ccccc23)C(=O)N[C@@H](C(C)C)C(=O)N[C@@H](Cc2ccc(-c3ccccc3)cc2)C(=O)N[C@@H]([C@@H](C)CC)C(=O)N[C@@H](CCCN)C(=O)N[C@H](CC(C)C)C(=O)N[C@@H](CCN)C(=O)N[C@@H](CC(C)C)C(=O)N[C@@H](C(C)C)C(=O)N[C@@H]([C@@H](C)O)C(=O)N1)C(=O)NCCCCCCCCCCC(=O)O [Compound 1207] ({CH2CO}-[4Pal]Y(Carboxymethyl)DWV[Bip]I[Orn][dL][Dab]LVTC[Orn][AEEA][Pra][Aun]-OH; thioether N-14) | 28.5 nM
3 | C#CC[C@H](NC(=O)COCCOCCNC(=O)[C@H](CCCCN)NC(=O)[C@@H]1CSCC(=O)N[C@@H](Cc2ccncc2)C(=O)N[C@@H](Cc2ccc(OCC(=O)O)cc2)C(=O)N[C@@H](CC(=O)O)C(=O)N[C@@H](Cc2c[nH]c3ccccc23)C(=O)N[C@@H](C(C)C)C(=O)N[C@@H](Cc2ccc(-c3ccccc3)cc2)C(=O)N[C@@H]([C@@H](C)CC)C(=O)N[C@@H](CCCN)C(=O)N[C@H](CC(C)C)C(=O)N[C@@H](CCN)C(=O)N[C@@H](CC(C)C)C(=O)N[C@@H](C(C)C)C(=O)N[C@@H]([C@@H](C)O)C(=O)N1)C(=O)NCCCCCCCCCCC(=O)O [Compound 1208] ({CH2CO}-[4Pal]Y(Carboxymethyl)DWV[Bip]I[Orn][dL][Dab]LVTCK[AEEA][Pra][Aun]-OH; thioether N-14) | 26.9 nM
4 | C#CC[C@H](NC(=O)COCCOCCNC(=O)[C@H](CCCNC(=N)N)NC(=O)[C@@H]1CSCC(=O)N[C@@H](Cc2ccncc2)C(=O)N[C@@H](Cc2ccc(OCC(=O)O)cc2)C(=O)N[C@@H](CC(=O)O)C(=O)N[C@@H](Cc2c[nH]c3ccccc23)C(=O)N[C@@H](C(C)C)C(=O)N[C@@H](Cc2ccc(-c3ccccc3)cc2)C(=O)N[C@@H]([C@@H](C)CC)C(=O)N[C@@H](CCCN)C(=O)N[C@H](CC(C)C)C(=O)N[C@@H](CCN)C(=O)N[C@@H](CC(C)C)C(=O)N[C@@H](C(C)C)C(=O)N[C@@H]([C@@H](C)O)C(=O)N1)C(=O)NCCCCCCCCCCC(=O)O [Compound 1209] ({CH2CO}-[4Pal]Y(Carboxymethyl)DWV[Bip]I[Orn][dL][Dab]LVTCR[AEEA][Pra][Aun]-OH; thioether N-14) | 35.2 nM
5 | C#CC[C@H](NC(=O)COCCOCCNC(=O)[C@H](Cc1cnc[nH]1)NC(=O)[C@@H]1CSCC(=O)N[C@@H](Cc2ccncc2)C(=O)N[C@@H](Cc2ccc(OCC(=O)O)cc2)C(=O)N[C@@H](CC(=O)O)C(=O)N[C@@H](Cc2c[nH]c3ccccc23)C(=O)N[C@@H](C(C)C)C(=O)N[C@@H](Cc2ccc(-c3ccccc3)cc2)C(=O)N[C@@H]([C@@H](C)CC)C(=O)N[C@@H](CCCN)C(=O)N[C@H](CC(C)C)C(=O)N[C@@H](CCN)C(=O)N[C@@H](CC(C)C)C(=O)N[C@@H](C(C)C)C(=O)N[C@@H]([C@@H](C)O)C(=O)N1)C(=O)NCCCCCCCCCCC(=O)O [Compound 1210] ({CH2CO}-[4Pal]Y(Carboxymethyl)DWV[Bip]I[Orn][dL][Dab]LVTCH[AEEA][Pra][Aun]-OH; thioether N-14) | 22.2 nM
6 | C#CC[C@H](NC(=O)COCCOCCNC(=O)[C@@H]1CSCC(=O)N[C@@H](Cc2ccncc2)C(=O)N[C@@H](Cc2ccc(OCC(=O)O)cc2)C(=O)N[C@@H](CC(=O)O)C(=O)N[C@@H](Cc2c[nH]c3ccccc23)C(=O)N[C@@H](C(C)C)C(=O)N[C@@H](Cc2ccc(-c3ccccc3)cc2)C(=O)N[C@@H]([C@@H](C)CC)C(=O)N[C@@H](CCCN)C(=O)N[C@H](CC(C)C)C(=O)N[C@@H](CCN)C(=O)N[C@@H](CC(C)C)C(=O)N[C@@H](C(C)C)C(=O)N[C@@H]([C@@H](C)O)C(=O)N1)C(=O)N[C@@H](CN)C(=O)NCCCCCCCCCCC(=O)O [Compound 1211] ({CH2CO}-[4Pal]Y(Carboxymethyl)DWV[Bip]I[Orn][dL][Dab]LVTC[AEEA][Pra][Dap][Aun]-OH; thioether N-14) | 15.6 nM
7 | C#CC[C@H](NC(=O)COCCOCCNC(=O)[C@@H]1CSCC(=O)N[C@@H](Cc2ccncc2)C(=O)N[C@@H](Cc2ccc(OCC(=O)O)cc2)C(=O)N[C@@H](CC(=O)O)C(=O)N[C@@H](Cc2c[nH]c3ccccc23)C(=O)N[C@@H](C(C)C)C(=O)N[C@@H](Cc2ccc(-c3ccccc3)cc2)C(=O)N[C@@H]([C@@H](C)CC)C(=O)N[C@@H](CCCN)C(=O)N[C@H](CC(C)C)C(=O)N[C@@H](CCN)C(=O)N[C@@H](CC(C)C)C(=O)N[C@@H](C(C)C)C(=O)N[C@@H]([C@@H](C)O)C(=O)N1)C(=O)N[C@@H](CCN)C(=O)NCCCCCCCCCCC(=O)O [Compound 1212] ({CH2CO}-[4Pal]Y(Carboxymethyl)DWV[Bip]I[Orn][dL][Dab]LVTC[AEEA][Pra][Dab][Aun]-OH; thioether N-14) | 33.2 nM
8 | C#CC[C@H](NC(=O)COCCOCCNC(=O)[C@@H]1CSCC(=O)N[C@@H](Cc2ccncc2)C(=O)N[C@@H](Cc2ccc(OCC(=O)O)cc2)C(=O)N[C@@H](CC(=O)O)C(=O)N[C@@H](Cc2c[nH]c3ccccc23)C(=O)N[C@@H](C(C)C)C(=O)N[C@@H](Cc2ccc(-c3ccccc3)cc2)C(=O)N[C@@H]([C@@H](C)CC)C(=O)N[C@@H](CCCN)C(=O)N[C@H](CC(C)C)C(=O)N[C@@H](CCN)C(=O)N[C@@H](CC(C)C)C(=O)N[C@@H](C(C)C)C(=O)N[C@@H]([C@@H](C)O)C(=O)N1)C(=O)N[C@@H](CCCN)C(=O)NCCCCCCCCCCC(=O)O [Compound 1213] ({CH2CO}-[4Pal]Y(Carboxymethyl)DWV[Bip]I[Orn][dL][Dab]LVTC[AEEA][Pra][Orn][Aun]-OH; thioether N-14) | 32.8 nM
9 | C#CC[C@H](NC(=O)COCCOCCNC(=O)[C@@H]1CSCC(=O)N[C@@H](Cc2ccncc2)C(=O)N[C@@H](Cc2ccc(OCC(=O)O)cc2)C(=O)N[C@@H](CC(=O)O)C(=O)N[C@@H](Cc2c[nH]c3ccccc23)C(=O)N[C@@H](C(C)C)C(=O)N[C@@H](Cc2ccc(-c3ccccc3)cc2)C(=O)N[C@@H]([C@@H](C)CC)C(=O)N[C@@H](CCCN)C(=O)N[C@H](CC(C)C)C(=O)N[C@@H](CCN)C(=O)N[C@@H](CC(C)C)C(=O)N[C@@H](C(C)C)C(=O)N[C@@H]([C@@H](C)O)C(=O)N1)C(=O)N[C@@H](CCCCN)C(=O)NCCCCCCCCCCC(=O)O [Compound 1214] ({CH2CO}-[4Pal]Y(Carboxymethyl)DWV[Bip]I[Orn][dL][Dab]LVTC[AEEA][Pra]K[Aun]-OH; thioether N-14) | 13.7 nM
10 | C#CC[C@H](NC(=O)COCCOCCNC(=O)[C@@H]1CSCC(=O)N[C@@H](Cc2ccncc2)C(=O)N[C@@H](Cc2ccc(OCC(=O)O)cc2)C(=O)N[C@@H](CC(=O)O)C(=O)N[C@@H](Cc2c[nH]c3ccccc23)C(=O)N[C@@H](C(C)C)C(=O)N[C@@H](Cc2ccc(-c3ccccc3)cc2)C(=O)N[C@@H]([C@@H](C)CC)C(=O)N[C@@H](CCCN)C(=O)N[C@H](CC(C)C)C(=O)N[C@@H](CCN)C(=O)N[C@@H](CC(C)C)C(=O)N[C@@H](C(C)C)C(=O)N[C@@H]([C@@H](C)O)C(=O)N1)C(=O)N[C@@H](CCCNC(=N)N)C(=O)NCCCCCCCCCCC(=O)O [Compound 1215] ({CH2CO}-[4Pal]Y(Carboxymethyl)DWV[Bip]I[Orn][dL][Dab]LVTC[AEEA][Pra]R[Aun]-OH; thioether N-14) | 13.8 nM
11 | C#CC[C@H](NC(=O)COCCOCCNC(=O)[C@@H]1CSCC(=O)N[C@@H](Cc2ccncc2)C(=O)N[C@@H](Cc2ccc(OCC(=O)O)cc2)C(=O)N[C@@H](CC(=O)O)C(=O)N[C@@H](Cc2c[nH]c3ccccc23)C(=O)N[C@@H](C(C)C)C(=O)N[C@@H](Cc2ccc(-c3ccccc3)cc2)C(=O)N[C@@H]([C@@H](C)CC)C(=O)N[C@@H](CCCN)C(=O)N[C@H](CC(C)C)C(=O)N[C@@H](CCN)C(=O)N[C@@H](CC(C)C)C(=O)N[C@@H](C(C)C)C(=O)N[C@@H]([C@@H](C)O)C(=O)N1)C(=O)N[C@@H](Cc1cnc[nH]1)C(=O)NCCCCCCCCCCC(=O)O [Compound 1216] ({CH2CO}-[4Pal]Y(Carboxymethyl)DWV[Bip]I[Orn][dL][Dab]LVTC[AEEA][Pra]H[Aun]-OH; thioether N-14) | 16.5 nM
12 | CC(C)C[C@@H]1NC(=O)[C@H](Cc2c[nH]c3ccccc23)NC(=O)[C@H](CC(=O)O)NC(=O)[C@H](Cc2ccncc2)NC(=O)[C@H](Cc2ccc(OCC(=O)O)cc2)NC(=O)CSC[C@@H](C(=O)N2CCNC[C@H]2C(=O)NCCCCCCCCCCC(=O)O)NC(=O)[C@H](C(C)O)NC(=O)[C@H](C(C)C)NC(=O)[C@H](CC2CCCCC2)NC(=O)[C@H](CCN)NC(=O)[C@@H](CC(C)C)NC(=O)[C@H](CCCN)NC(=O)[C@H](C(C)C)NC(=O)[C@H](Cc2ccc(-c3ccccc3)cc2)NC1=O (stereo partly drawn) [Compound 1223] ({CH2CO}-Y(Carboxymethyl)[4Pal]DWL[Bip]V[Orn][dL][Dab][Cha]V[Thr(3ξ)]C[Pip(4-aza)][Aun]-OH; thioether N-14) | 135 nM
